Test results taken from patent US11246961B2, “Engineered scaffolds for vascularized tissue repair” (The Regents of the University of California, priority 2016, dated 2022).
“Also recorded” adds a separate entry of the source.

Columns and labels:
[1] = test system: THP-1 monocytes; test: on-bead whole cell binding assay, THP-1 monocytes; format: cell-based; conditions: 10 minutes, 30 minutes or 2 hours
Text: (§1) Human coronary artery endothelial cells (HCAECs) were purchased from ATCC. Human cardiac microvascular endothelial cells (HMVECs) were purchased from Lonza. THP-1 monocytes were obtained from Dr. Pamela Lein (University of California, Davis). The myeloid leukemia K562 cells that have been transfected with human integrin αvβ3 gene (αvβ3-K562 cells) were provided by Dr. Yoshikazu Takada and the K562 cells transfected with human integrin αIIbβ3 gene (αIIb3-K562 cells) were provided Dr. Jennifer Cochran (Stanford University)
(§2) HECFCs, HCAECs, HMVECs and THP-1 monocytes were cultured in their respective growth medium as described in Example 1. For cell bead-binding assay, 6×10^5 HECFCs, HCAECs, HMVECs or THP-1 monocytes in 2 mL of their respective culture medium were added to an ultra-low attachment 35-mm petri dish (Corning Incorporated) followed by resin beads (Lam et al. (1991) Nature 354:82). The dishes were incubated in a shaking incubator at 37° C., 5% CO2 for various time points at 40 rpm. For platelet bead-binding assay, the platelets isolated as described in Example 1 were added to an ultra-low attachment 35-mm petri dish and incubated with the resin beads in the shaking incubator as described for the cell-bead binding assy. Phase contrast images were taken at different time points using an Olympus IX81 microscope. […]

[2] = test system: THP-1 monocytes; test: flow cytometry ligand-cell binding, THP-1 monocytes; conditions: biotinylated ligand 1 μM
Description: (§3) FIG. 10 presents flow cytometry data from an assay of binding affinity of LXW7 and GRGD (SEQ ID NO: 1) to different cell types. Tests included EPCs/ECs from different sources, including HECFCs (A), HCAECs (B), HMVECs (C), and THP-1 monocytes (D), Platelets (E), as well as K562 cells engineered to highly express αvβ3 (αvβ3-K562, F), and αIIbβ3 (αIIbβ3-K562, G). Cells were incubated with the LXW7-bio, GRGD-bio (SEQ ID NO: 1), or D-Biotin peptide and subsequently incubated with streptavidin-phycoerythrin. Flow cytometry analysis was performed to determine the binding affinity of the ligands. Samples treated with D-biotin were used as negative controls.
(§4) LXW7-bio (1 μM) was incubated with 3×10^5 HECFCs, HCAECs, HMVECs, αvβ3-K562 and αIIbβ3-K562 cells and THP-1 monocytes and 1×10^8 platelets in binding buffer (HEPES containing 10% FBS) on ice for 30 minutes. The samples were washed three times with DPBS containing 1% FBS and incubated with 2 μg/ml of streptavidin-phycoerythrin on ice for 30 minutes and then washed with DPBS. Samples were analyzed on a BD Fortessa LSR Cell Analyzer and further data analysis and gating were performed using FlowJo software (Treestar, Inc.).

[3] = test system: VEGFR-2; test: mRNA level of VEGFR-2 on EPCs; format: cell-based; conditions: EPCs treated with LXW7
Description: FIG. 15 presents graphs of mRNA levels of VEGFR-2 (A) and EGFR (B) on EPCs after treating with different concentrations of LXW7 for 48 h. *P<0.05 vs. Control, #P<0.05 vs. 25 nM (n=10 per group).

[4] = target: T1, integrin αIIbβ3 (Homo sapiens, UniProt P05106+P08514); test: flow cytometry ligand-cell binding, αIIbβ3-K562 cells; conditions: K562 cells highly expressing αIIbβ3
T1 construct: expressed in transfected cells; host or cells: K562 myeloid leukemia cells (αIIbβ3-K562), provided by Dr. Jennifer Cochran (Stanford University)
Description: as §3
Human coronary artery endothelial cells (HCAECs) were purchased from ATCC. Human cardiac microvascular endothelial cells (HMVECs) were purchased from Lonza. THP-1 monocytes were obtained from Dr. Pamela Lein (University of California, Davis). […]
as §4, with “The samples were washed three times with DPBS containing 1% FBS and incubated with 2 μg/ml of streptavidin-phycoerythrin on ice for 30 minutes and then washed with DPBS.” left out

[5] = test system: HECFCs; test: on-bead whole cell binding assay, HECFCs; format: cell-based, human
Text: Endothelial colony forming cells (ECFCs), a subtype of EPCs also often referred to as outgrowth endothelial cells (OECs), were isolated from human umbilical cord blood as previously described (Williams et al. (2015) PloS One 10:e0123437; Ingram et al. (2004) Blood 104:2752). Human umbilical cord blood (10 U heparin/mL blood) was obtained from the UC Davis Umbilical Cord Blood Collection Program (UCBCP) and diluted 1:1 with Phosphate-buffered saline (PBS), without calcium and magnesium, pH 7.2 (Hyclone). Fifteen mL Ficoll-Paque PLUS (Amersham Biosciences) was laid at the bottom of 20 mL diluted blood and centrifuged at 2000 rpm for 30 minutes at room temperature. The hazy layer of mononuclear cells (MNCs) that seat at the interface between the Ficoll and serum was collected and dispensed into 50-mL conical tube containing 10 mL EBM-2 (Lonza) and centrifuged at 1500 rpm for 10 minutes at room temperature. The supernatant was carefully aspirated and the pellets were treated with red blood cell lysis buffer (eBioscience, Inc.) and then sorted by CD34 microbead magnetic sorting (Miltenyi Biotec GmbH) as per manufacturer's instructions. The CD34^+ cells were seeded on rat-tail collagen I (BD Biosciences Discovery) coated tissue culture plates and cultured in EGM-2 media (Lonza). After 24 h, non-adherent cells were removed and the media was changed daily to day 7 and every other day thereafter. ECFC-derived colonies appeared between day 4 and day 7 of culture with s typical endothelial cobblestone pattern. Individual colonies were isolated and expanded and allowed to grow to 80% to 90% confluency before first passage. ECFCs were used between P3 and P5 for all experiments.
HECFCs, HCAECs, HMVECs and THP-1 monocytes were cultured in their respective growth medium as described in Example 1. For cell bead-binding assay, 6×10^5 HECFCs, HCAECs, HMVECs or THP-1 monocytes in 2 mL of their respective culture medium were added to an ultra-low attachment 35-mm petri dish (Corning Incorporated) followed by resin beads (Lam et al. (1991) Nature 354:82). […]

[6] = test system: HCAECs; test: MTS assay of EC proliferation on LXW7; format: cell-based, human; conditions: vs D-biotin treated surface; up to 5 days
Description: The 96-well plates from Example 3 were treated with 1 μM Avidin solution for 1 hour at room temperature. Avidin coated wells were rinsed three times with DPBS and treated with LXW7-bio (1 μM), with D-biotin (1 μM) serving as the control. After 1 hour, the wells were washed three times with DPBS and blocked with 1% BSA for 1 hour. 3×10^3 viable HCAECs were seeded per well and cultured in EGM-2 media for 5 days. MTS assay was performed at each day as per the manufacturer instructions (Interchim) and analyzed on SpectraMax-3 plate reader (Molecular Devices).

[7] = test system: HMVECs; test: on-bead whole cell binding assay, HMVECs; format: cell-based, human; conditions: 10 minutes, 30 minutes or 2 hours
Text: as §1, §2

- binding to αIIbβ3-K562 cells by flow cytometry [4]: very low binding
Substance: cGRGDdvc [LXW7]
- attachment of THP-1 monocytes to beads displaying LXW7 [1]: did not support effective attachment of THP-1 monocytes
- binding to THP-1 monocytes by flow cytometry [2]: did not bind to THP-1 monocytes
- VEGFR2 mRNA level [3]: increases in VEGFR2 and EGFR mRNA levels were found to be dependent on treatment time
- attachment of HECFCs to beads displaying LXW7 ([5]; 10 minutes, 30 minutes or 2 hours): efficiently supported attachment of EPCs/ECs from different sources; also recorded: efficiently supported EPC/EC attachment
- binding of HECFCs to ligand-displaying resin beads ([5]; 2 hours incubation): bound both HECFCs and HCAECs
- EC proliferation on LXW7 treated surface (MTS) [6]: significantly promoted EC proliferation after 48 hours in culture
- attachment of HMVECs to beads displaying LXW7 [7]: efficiently supported attachment of EPCs/ECs from different sources; also recorded: efficiently supported EPC/EC attachment
